According to patent publication US11649227B2, “Allosteric chromenone inhibitors of phosphoinositide 3-kinase (PI3K) for the treatment of disease” (Petra Pharma Corporation, priority 2020, dated 2023):

target: human full length PIK3CA Wild-type (p110α/p85α complex) (Homo sapiens (Human), UniProt P42336); experiment: PI3K-Alpha kinase (PIK3CA) activity, wild-type, Transcreener ADP2 FI assay; settings: PI3K-α (PIK3CA) wild-type, biochemical
How it was run: (§1)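 Recombinant full-length p110α/p85α (1-5 nM, wild-type or H1047R) preincubated with compound 1 h at 27° C, then reacted with 25 uM ATP and 50 uM PIP2diC8 or membrane PIP2:PS in pH 7.4 HEPES, 25 mM MgCl2, 5% DMSO (also pH 6.0/6.4 MOPS). Run to ~2.5 uM ADP; Transcreener ADP2 fluorescence converted via ADP calibration for IC50.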

human full length PIK3CA Wild-type (p110α/p85α complex), sequence (P42336 whole entry): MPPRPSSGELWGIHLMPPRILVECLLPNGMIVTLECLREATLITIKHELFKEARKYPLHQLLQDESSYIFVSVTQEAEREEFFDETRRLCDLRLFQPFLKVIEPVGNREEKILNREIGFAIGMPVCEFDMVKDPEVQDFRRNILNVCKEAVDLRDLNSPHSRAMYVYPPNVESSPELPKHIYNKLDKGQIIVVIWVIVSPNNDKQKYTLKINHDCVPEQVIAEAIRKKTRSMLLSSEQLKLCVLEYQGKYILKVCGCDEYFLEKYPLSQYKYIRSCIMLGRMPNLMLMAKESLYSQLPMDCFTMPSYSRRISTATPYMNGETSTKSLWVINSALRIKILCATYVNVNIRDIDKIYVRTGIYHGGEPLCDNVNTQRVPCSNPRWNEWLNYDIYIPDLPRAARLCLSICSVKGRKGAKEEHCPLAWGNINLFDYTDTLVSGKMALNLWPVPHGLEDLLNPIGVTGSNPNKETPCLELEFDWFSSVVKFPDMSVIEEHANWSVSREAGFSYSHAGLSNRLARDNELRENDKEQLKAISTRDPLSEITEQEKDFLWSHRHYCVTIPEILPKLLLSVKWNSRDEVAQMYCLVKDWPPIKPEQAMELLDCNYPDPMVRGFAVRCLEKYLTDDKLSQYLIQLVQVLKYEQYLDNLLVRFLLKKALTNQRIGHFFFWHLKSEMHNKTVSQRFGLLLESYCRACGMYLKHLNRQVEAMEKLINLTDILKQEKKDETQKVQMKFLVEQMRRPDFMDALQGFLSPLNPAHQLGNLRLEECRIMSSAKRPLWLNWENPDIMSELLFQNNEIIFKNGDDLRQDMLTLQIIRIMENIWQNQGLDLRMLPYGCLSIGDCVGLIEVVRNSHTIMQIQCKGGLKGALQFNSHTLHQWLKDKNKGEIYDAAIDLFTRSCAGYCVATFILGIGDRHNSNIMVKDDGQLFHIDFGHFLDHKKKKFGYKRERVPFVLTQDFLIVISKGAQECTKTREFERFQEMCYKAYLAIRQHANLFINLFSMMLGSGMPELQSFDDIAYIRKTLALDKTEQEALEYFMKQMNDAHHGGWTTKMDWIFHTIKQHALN
human full length PIK3CA Wild-type (p110α/p85α complex), sequence (P27986 whole entry partner): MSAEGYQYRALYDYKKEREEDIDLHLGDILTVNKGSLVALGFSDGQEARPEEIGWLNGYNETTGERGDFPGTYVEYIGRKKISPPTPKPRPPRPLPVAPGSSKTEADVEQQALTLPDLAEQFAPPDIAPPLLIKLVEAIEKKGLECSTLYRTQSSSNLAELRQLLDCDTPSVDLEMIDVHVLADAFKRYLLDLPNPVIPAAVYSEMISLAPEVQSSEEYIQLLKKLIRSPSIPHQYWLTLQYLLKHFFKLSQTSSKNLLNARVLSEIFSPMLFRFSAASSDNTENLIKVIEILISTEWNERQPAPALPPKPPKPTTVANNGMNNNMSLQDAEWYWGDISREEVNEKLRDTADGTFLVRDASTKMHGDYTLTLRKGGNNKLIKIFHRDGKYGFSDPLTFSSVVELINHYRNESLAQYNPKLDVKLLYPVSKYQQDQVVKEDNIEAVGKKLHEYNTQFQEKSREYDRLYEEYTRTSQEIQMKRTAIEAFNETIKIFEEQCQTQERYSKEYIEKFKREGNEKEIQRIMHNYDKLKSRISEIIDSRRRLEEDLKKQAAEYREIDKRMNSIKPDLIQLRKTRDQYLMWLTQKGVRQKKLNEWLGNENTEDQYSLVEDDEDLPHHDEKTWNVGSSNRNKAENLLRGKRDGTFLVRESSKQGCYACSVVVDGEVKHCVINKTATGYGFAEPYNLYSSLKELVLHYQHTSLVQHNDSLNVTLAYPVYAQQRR

| IC50 | SMILES |
| --- | --- |
| 0.5 to 1 µM | CONC(=O)c1ccccc1NC(C)c1cc(C)cc2c(=O)cc(N3CCC(C)(C)CC3)oc12 (centres unmarked) [Example 19, 2-[1-[2-(4,4-Dimethyl-1-piperidyl)-6-methyl-4-oxo-chromen-8-yl]ethylamino]-N-methoxy-benzamide] |
| 0.5 to 1 µM | Cc1cc(C(C)Nc2ccccc2-c2nnn[nH]2)c2oc(N3CCC(C)(C)CC3)cc(=O)c2c1 (centres unmarked) [Example 20, 2-(4,4-Dimethyl-1-piperidyl)-6-methyl-8-[1-[2-(1H-tetrazol-5-yl)anilino]ethyl]chromen-4-one] |
| 1 to 5 µM | Cc1cc([C@@H](C)Nc2ccccc2C(=O)O)c2oc(N3CCCCC3)cc(=O)c2c1 [Example 376, 2-[[(1R)-1-[6-Methyl-4-oxo-2-(1-piperidyl)chromen-8-yl]ethyl]amino]benzoic acid] |

target: human full length PIK3CA H1047R mutant (p110α/p85α complex) (Homo sapiens (Human), UniProt P42336, H1047R); experiment: PI3K-Alpha kinase (PIK3CA) activity, H1047R mutant, Transcreener ADP2 FI assay; settings: PI3K-α (PIK3CA) H1047R mutant, biochemical
Sequence (P42336 whole entry H1047R): as the sequence (P42336 whole entry) above, with H1047R counted along it
Sequence (P27986 whole entry partner): as the sequence (P27986 whole entry partner) above
How it was run: as §1

| IC50 | SMILES |
| --- | --- |
| 1 to 5 µM | COc1cc(C(=O)O)c(NC(C)c2cc(C)cc3c(=O)cc(N4CCC(C)(C)CC4)oc23)cc1F (centres unmarked) [Example 1, 2-[1-[2-(4,4-dimethyl-1-piperidyl)-6-methyl-4-oxo-chromen-8-yl]ethylamino]-4-fluoro-5-methoxy-benzoic acid] |
| 0.5 to 1 µM | CCNc1cc(=O)c2cc(C)cc(C(C)Nc3ccccc3C(=O)O)c2o1 (centres unmarked) [Example 126, 2-[1-[2-(Ethylamino)-6-methyl-4-oxo-chromen-8-yl]ethylamino]benzoic acid] |
| 1 to 5 µM | Cc1cc(C(C)Nc2ccccc2C(=O)O)c2oc(N3CCC4(CC3)CN(C)C(=O)O4)cc(=O)c2c1 (centres unmarked) [Example 380, 2-[1-[6-Methyl-2-(3-methyl-2-oxo-1-oxa-3,8-diazaspiro[4.5]decan-8-yl)-4-oxo-chromen-8-yl]ethylamino]benzoic acid] |

system: T-47D; experiment: Cellular Assay T-47D; format: cell-based; settings: Homo sapiens, T47D; T-47D cells

| EC50 | SMILES |
| --- | --- |
| 15 to 24 µM | COc1cc(C(=O)O)c(NC(C)c2cc(C)cc3c(=O)cc(N4CCC(C)(C)CC4)oc23)cc1F (centres unmarked) [Example 1, 2-[1-[2-(4,4-dimethyl-1-piperidyl)-6-methyl-4-oxo-chromen-8-yl]ethylamino]-4-fluoro-5-methoxy-benzoic acid] |
| 15 to 24 µM | Cc1cc(C(C)Nc2cc(F)c(F)cc2C(=O)O)c2oc(N3CCC(C)(C)CC3)cc(=O)c2c1 (centres unmarked) [Example 13, 2-[1-[2-(4,4-Dimethyl-1-piperidyl)-6-methyl-4-oxo-chromen-8-yl]ethylamino]-4,5-difluoro-benzoic acid] |
| 1 to 5 µM | Cc1cc(C(C)Nc2ccc(F)cc2C(=O)O)c2oc(N3CCC(C)(C)CC3)cc(=O)c2c1 (centres unmarked) [Example 14, 2-[1-[2-(4,4-Dimethyl-1-piperidyl)-6-methyl-4-oxo-chromen-8-yl]ethylamino]-5-fluoro-benzoic acid] |
| 5 to 15 µM | COc1ccc(NC(C)c2cc(C)cc3c(=O)cc(N4CCC(C)(C)CC4)oc23)c(C(=O)O)c1 (centres unmarked) [Example 15, 2-[1-[2-(4,4-Dimethyl-1-piperidyl)-6-methyl-4-oxo-chromen-8-yl]ethylamino]-5-methoxy-benzoic acid] |
| > 24 µM | COc1cc(NC(C)c2cc(C)cc3c(=O)cc(N4CCC(C)(C)CC4)oc23)c(C(=O)O)cc1OC (centres unmarked) [Example 16, 2-[1-[2-(4,4-Dimethyl-1-piperidyl)-6-methyl-4-oxo-chromen-8-yl]ethylamino]-4,5-dimethoxy-benzoic acid] |
| > 24 µM | Cc1cc(C(C)Nc2c(C)cccc2C(=O)O)c2oc(N3CCC(C)(C)CC3)cc(=O)c2c1 (centres unmarked) [Example 17, 2-[1-[2-(4,4-Dimethyl-1-piperidyl)-6-methyl-4-oxo-chromen-8-yl]ethylamino]-3-methyl-benzoic acid] |
| 15 to 24 µM | Cc1cc(C(C)Nc2cc(F)c(C)cc2C(=O)O)c2oc(N3CCC(C)(C)CC3)cc(=O)c2c1 (centres unmarked) [Example 18, 2-[1-[2-(4,4-Dimethyl-1-piperidyl)-6-methyl-4-oxo-chromen-8-yl]ethylamino]-4-fluoro-5-methyl-benzoic acid] |
| 15 to 24 µM | CONC(=O)c1ccccc1NC(C)c1cc(C)cc2c(=O)cc(N3CCC(C)(C)CC3)oc12 (centres unmarked) [Example 19, 2-[1-[2-(4,4-Dimethyl-1-piperidyl)-6-methyl-4-oxo-chromen-8-yl]ethylamino]-N-methoxy-benzamide] |
| 15 to 24 µM | Cc1cc(C(C)Nc2ccccc2-c2nnn[nH]2)c2oc(N3CCC(C)(C)CC3)cc(=O)c2c1 (centres unmarked) [Example 20, 2-(4,4-Dimethyl-1-piperidyl)-6-methyl-8-[1-[2-(1H-tetrazol-5-yl)anilino]ethyl]chromen-4-one] |
| 5 to 15 µM | Cc1cc(C(C)Nc2ccccc2S(N)(=O)=O)c2oc(N3CCC(C)(C)CC3)cc(=O)c2c1 (centres unmarked) [Example 21, 2-[1-[2-(4,4-Dimethyl-1-piperidyl)-6-methyl-4-oxo-chromen-8-yl]ethylamino]benzenesulfonamide] |
| 5 to 15 µM | Cc1cc(C(C)Nc2cccc(F)c2C(=O)O)c2oc(N3CCC(C)(C)CC3)cc(=O)c2c1 (centres unmarked) [Example 23, 2-[1-[2-(4,4-Dimethyl-1-piperidyl)-6-methyl-4-oxo-chromen-8-yl]ethylamino]-6-fluoro-benzoic acid] |
| > 24 µM | Cc1cc(C(C)Nc2cccc(Cl)c2C(=O)O)c2oc(N3CCC(C)(C)CC3)cc(=O)c2c1 (centres unmarked) [Example 24, 2-Chloro-6-[1-[2-(4,4-dimethyl-1-piperidyl)-6-methyl-4-oxo-chromen-8-yl]ethylamino]benzoic acid] |
| > 24 µM | Cc1cc(C(C)Nc2cccc3c2C(=O)NC3=O)c2oc(N3CCC(C)(C)CC3)cc(=O)c2c1 (centres unmarked) [Example 32, 4-((1-(2-(4,4-Dimethylpiperidin-1-yl)-6-methyl-4-oxo-4H-chromen-8-yl)ethyl)amino)isoindoline-1,3-dione] |
| 5 to 15 µM | Cc1cc(C(C)Nc2cc(F)ccc2C(=O)O)c2oc(N3CCC(C)(C)CC3)cc(=O)c2c1 (centres unmarked) [Example 36, 2-[1-[2-(4,4-Dimethyl-1-piperidyl)-6-methyl-4-oxo-chromen-8-yl]ethylamino]-4-fluoro-benzoic acid] |
| > 24 µM | Cc1cc(C(C)Nc2ccccc2C(=O)O)c2oc(NCC(C)C)cc(=O)c2c1 (centres unmarked) [Example 77, 2-[1-[2-(Isobutylamino)-6-methyl-4-oxo-chromen-8-yl]ethylamino]benzoic acid] |
| > 24 µM | Cc1cc(C(C)Nc2ccccc2C(=O)O)c2oc(N(C)C)cc(=O)c2c1 (centres unmarked) [Example 78, 2-[1-[2-(Dimethylamino)-6-methyl-4-oxo-chromen-8-yl]ethylamino]benzoic acid] |
| 1 to 5 µM | Cc1cc(C(C)Nc2ccccc2C(=O)O)c2oc(N3CCCC(C)C3)cc(=O)c2c1 (centres unmarked) [Example 79, 2-[1-[6-Methyl-2-(3-methyl-1-piperidyl)-4-oxo-chromen-8-yl]ethylamino]benzoic acid] |

| EC50 | SMILES |
| --- | --- |
| > 24 µM | Cc1cc(C(C)Nc2ccccc2C(=O)O)c2oc(N3CCC4(CCNCC4)CC3)cc(=O)c2c1 (centres unmarked) [Example 89, 2-[1-[2-(3,9-Diazaspiro[5.5]undecan-3-yl)-6-methyl-4-oxo-chromen-8-yl]ethylamino]benzoic acid] |
| > 24 µM | Cc1cc(C(C)Nc2ccccc2C(=O)O)c2oc(N3CCNCC3)cc(=O)c2c1 (centres unmarked) [Example 91, 2-[1-(6-Methyl-4-oxo-2-piperazin-1-yl-chromen-8-yl)ethylamino]benzoic acid] |
| > 24 µM | Cc1cc(C(C)Nc2ccccc2C(=O)O)c2oc(N3CCN(C)CC3)cc(=O)c2c1 (centres unmarked) [Example 92, 2-[1-[6-Methyl-2-(4-methylpiperazin-1-yl)-4-oxo-chromen-8-yl]ethylamino]benzoic acid] |
| 5 to 15 µM | Cc1cc(C(C)Nc2ccccc2C(=O)O)c2oc(N3CCC4(CCOCC4)CC3)cc(=O)c2c1 (centres unmarked) [Example 94, 2-[1-[6-Methyl-2-(3-oxa-9-azaspiro[5.5]undecan-9-yl)-4-oxo-chromen-8-yl]ethylamino]benzoic acid] |
| > 24 µM | Cc1cc(C(C)Nc2ccccc2C(=O)O)c2oc(N3CCCC4(CCNC4=O)C3)cc(=O)c2c1 (centres unmarked) [Example 95, 2-[1-[6-Methyl-4-oxo-2-(1-oxo-2,9-diazaspiro[4.5]decan-9-yl)chromen-8-yl]ethylamino]benzoic acid] |
| > 24 µM | Cc1cc(C(C)Nc2ccccc2C(=O)O)c2oc(N3CCC4(CC3)COC4)cc(=O)c2c1 (centres unmarked) [Example 98, 2-[1-[6-Methyl-2-(2-oxa-7-azaspiro[3.5]nonan-7-yl)-4-oxo-chromen-8-yl]ethylamino]benzoic acid] |
| > 24 µM | CCNc1cc(=O)c2cc(C)cc(C(C)Nc3ccccc3C(=O)O)c2o1 (centres unmarked) [Example 126, 2-[1-[2-(Ethylamino)-6-methyl-4-oxo-chromen-8-yl]ethylamino]benzoic acid] |
| 15 to 24 µM | Cc1cc(C(C)Nc2ccccc2C(=O)O)c2oc(N3CCCC3)cc(=O)c2c1 (centres unmarked) [Example 368, 2-[1-(6-Methyl-4-oxo-2-pyrrolidin-1-yl-chromen-8-yl)ethylamino]benzoic acid] |
| > 24 µM | Cc1cc(CNc2ccccc2C(=O)O)c2oc(N3CCC(C)(C)CC3)cc(=O)c2c1 [Example 369, 2-[[2-(4,4-Dimethyl-1-piperidyl)-6-methyl-4-oxo-chromen-8-yl]methylamino]benzoic acid] |
| 1 to 5 µM | Cc1cc(C(C)Nc2ccccc2C(=O)O)c2oc(N3CCC(C)CC3)cc(=O)c2c1 (centres unmarked) [Example 370, 2-[1-[6-Methyl-2-(4-methyl-1-piperidyl)-4-oxo-chromen-8-yl]ethylamino]benzoic acid] |
| > 24 µM | Cc1cc(C(C)Nc2ccccc2C(=O)O)c2oc(N3CCC3)cc(=O)c2c1 (centres unmarked) [Example 375, 2-[1-[2-(Azetidin-1-yl)-6-methyl-4-oxo-chromen-8-yl]ethylamino]benzoic acid] |
| 1 to 5 µM | Cc1cc([C@@H](C)Nc2ccccc2C(=O)O)c2oc(N3CCCCC3)cc(=O)c2c1 [Example 376, 2-[[(1R)-1-[6-Methyl-4-oxo-2-(1-piperidyl)chromen-8-yl]ethyl]amino]benzoic acid] |
| > 24 µM | COCCOCCOC(=O)c1ccccc1N[C@H](C)c1cc(C)cc2c(=O)cc(N3CCCCC3)oc12 [Example 377, 2-(2-Methoxyethoxy)ethyl 2-[[(1R)-1-[6-methyl-4-oxo-2-(1-piperidyl)chromen-8-yl]ethyl]amino]benzoate] |
| > 24 µM | COC(=O)c1ccccc1N[C@H](C)c1cc(C)cc2c(=O)cc(N3CCCCC3)oc12 [Example 379, Methyl 2-[[(1R)-1-[6-methyl-4-oxo-2-(1-piperidyl)chromen-8-yl]ethyl]amino]benzoate] |
| > 24 µM | Cc1cc(C(C)Nc2ccccc2C(=O)O)c2oc(N3CCC4(CC3)CN(C)C(=O)O4)cc(=O)c2c1 (centres unmarked) [Example 380, 2-[1-[6-Methyl-2-(3-methyl-2-oxo-1-oxa-3,8-diazaspiro[4.5]decan-8-yl)-4-oxo-chromen-8-yl]ethylamino]benzoic acid] |
| > 24 µM | Cc1cc(C(C)Nc2ccccc2C(=O)O)c2oc(N3CCC4(CCN(C)C4=O)CC3)cc(=O)c2c1 (centres unmarked) [Example 381, 2-[1-[6-Methyl-2-(2-methyl-1-oxo-2,8-diazaspiro[4.5]decan-8-yl)-4-oxo-chromen-8-yl]ethylamino]benzoic acid] |
| 1 to 5 µM | Cc1cc([C@@H](C)Nc2ccccc2C(=O)O)c2oc(N3CCC(Cl)CC3)cc(=O)c2c1 [Example 383, 2-[[(1R)-1-[2-(4-Chloro-1-piperidyl)-6-methyl-4-oxo-chromen-8-yl]ethyl]amino]benzoic acid] |

| SMILES | EC50 |
| --- | --- |
| Cc1cc(C(C)Nc2ccccc2C(=O)O)c2oc(N3CCN(C(=O)OC(C)(C)C)CC3)cc(=O)c2c1 (centres unmarked) [Example 90, 2-[1-[2-(4-tert-Butoxycarbonylpiperazin-1-yl)-6-methyl-4-oxo-chromen-8-yl]ethylamino]benzoic acid] | 15 to 24 µM |
